Test results from patent US7893063B2, “2,4,6-trisubstituted pyrimidines as phosphotidylinositol (PI) 3-kinase inhibitors and their use in the treatment of cancer” (AstraZeneca AB, priority 2004, dated 2011).
pIC50: −log10 of the molar value.

What was measured:
[1] = system: phosphorylation of Serine 473 in Akt; experiment: In vitro phospho-Ser473 Akt assay, Test (b); assay type: cell-based; details: Homo sapiens, MDA-MB-468 cells, 2 hours incubation, read-out: IC50, inhibition of phosphorylation of Serine 473 in Akt
Experimental: (b) In Vitro Phospho-Ser473 Akt Assay
This assay determines the ability of test compounds to inhibit phosphorylation of Serine 473 in Akt as assessed using Acumen Explorer technology (Acumen Bioscience Limited), a plate reader that can be used to rapidly quantitate features of images generated by laser-scanning.
A MDA-MB-468 human breast adenocarcinoma cell line (LGC Promochem, Teddington, Middlesex, UK, Catalogue No. HTB-132) was routinely maintained at 37° C. with 5% CO2 up to a confluency of 70-90% in Dulbecco's modified Eagle's growth medium (DMEM; Invitrogen Limited, Paisley, UK Catalogue No. 41966-029) containing 10% heat-inactivated foetal calf serum (FCS; Sigma, Poole, Dorset, UK, Catalogue No. F0392) and 1% L-glutamine (Gibco, Catalogue No. 25030-024).
For the assay, the cells were detached from the culture flask using ‘Accutase’ (Innovative Cell Technologies Inc., San Diego, Calif., USA; Catalogue No. AT104) using standard tissue culture methods and resuspended in media to give 1.7×10^5 cells per ml. Aliquots (90 μl) were seeded into each of the inner 60 wells of a black Packard 96 well plate (PerkinElmer, Boston, Mass., USA; Catalogue No. 6005182) to give a density of ˜15000 cells per well. Aliquots (90 μl) of culture media were placed in the outer wells to prevent edge effects. The cells were incubated overnight at 37° C. with 5% CO2 to allow them to adhere.
On day 2, the cells were treated with test compounds and incubated for 2 hours at 37° C. with 5% CO2. Test compounds were prepared as 10 mM stock solutions in DMSO and serially diluted as required with growth media to give a range of concentrations that were 10-fold the required final test concentrations. Aliquots (10 μl) of each compound dilution were placed in a well (in triplicate) to give the final required concentrations. […]
All subsequent aspiration and wash steps were carried out using a Tecan 96 well plate washer (aspiration speed 10 mm/sec). […] An aliquot of PBS (50 μl) was added to each well and the plates were sealed with black plate sealers and the fluorescence signal was detected and analysed. […]

p110α Type Ia human PI3K = molecular target: T1, p110α Type Ia human PI3K (Homo sapiens, UniProt P42336); experiment: In vitro enzyme assay (AlphaScreen), Test (a); assay type: biochemical; details: recombinant enzyme, PI(4,5)P2 substrate, ATP 4 μM, read-out: IC50 versus p110α Type Ia human PI3K
T1 construct: full length DNA of each of the p110α, p110β and p110δ Type Ia human PI3K p110 isoforms; 6-His; made in house; Grp1 PH domain in E. coli
Description: (a) In Vitro Enzyme Assay
The assay used AlphaScreen technology (Gray et al., Analytical Biochemistry, 2003, 313: 234-245) to determine the ability of test compounds to inhibit phosphorylation by recombinant Type I PI3K enzymes of the lipid PI(4,5)P2.
DNA fragments encoding human PI3K catalytic and regulatory subunits were isolated from cDNA libraries using standard molecular biology and PCR cloning techniques. The selected DNA fragments were used to generate baculovirus expression vectors. In particular, full length DNA of each of the p110α, p110β and p110δ Type Ia human PI3K p110 isoforms (EMBL Accession Nos. HSU79143, S67334, Y10055 for p110α, p110β and p110δ respectively) were sub-cloned into a pDEST10 vector (Invitrogen Limited, Fountain drive, Paisley, UK). The vector is a Gateway-adapted version of Fastbac1 containing a 6-His epitope tag. A truncated form of Type Ib human PI3K p110γ isoform corresponding to amino acid residues 144-1102 (EMBL Accession No. X8336A) and the full length human p85α regulatory subunit (EMBL Accession No. HSP13KIN) were also sub-cloned into pFastBac1 vector containing a 6-His epitope tag. The Type Ia p110 constructs were co-expressed with the p85α regulatory subunit. Following expression in the baculovirus system using standard baculovirus expression techniques, expressed proteins were purified using the His epitope tag using standard purification techniques.
DNA corresponding to amino acids 263 to 380 of human Grp1 PH domain was isolated from a cDNA library using standard molecular biology and PCR cloning techniques. The resultant DNA fragment was sub-cloned into a pGEX 4T1 E. coli expression vector containing a GST epitope tag (Amersham Pharmacia Biotech, Rainham, Essex, UK) as described by Gray et al., Analytical Biochemistry, 2003, 313: 234-245). The GST-tagged Grp1 PH domain was expressed and purified using standard techniques.
Test compounds were prepared as 10 mM stock solutions in DMSO and diluted into water as required to give a range of final assay concentrations. Aliquots (2 μl) of each compound dilution were placed into a well of a Greiner 384-well low volume (LV) white polystyrene plate (Greiner Bio-one, Brunel Way, Stonehouse, Gloucestershire, UK Catalogue No. 784075). […]
Biotinylated-DiC8-PI(3,4,5)P3 (50 nM; Cell Signals Inc., Catalogue No. 107), recombinant purified GST-Grp1 PH protein (2.5 nM) and AlphaScreen Anti-GST donor and acceptor beads (100 ng; Packard Bioscience Limited, Station Road, Pangbourne, Berkshire, UK, Catalogue No. 6760603M) were added and the assay plates were left for about 5 to 20 hours at ambient temperature in the dark. The resultant signals arising from laser light excitation at 680 nm were read using a Packard AlphaQuest instrument. […]

T1 sequence (P42336 whole entry, the tested form may be a part, canonical isoform): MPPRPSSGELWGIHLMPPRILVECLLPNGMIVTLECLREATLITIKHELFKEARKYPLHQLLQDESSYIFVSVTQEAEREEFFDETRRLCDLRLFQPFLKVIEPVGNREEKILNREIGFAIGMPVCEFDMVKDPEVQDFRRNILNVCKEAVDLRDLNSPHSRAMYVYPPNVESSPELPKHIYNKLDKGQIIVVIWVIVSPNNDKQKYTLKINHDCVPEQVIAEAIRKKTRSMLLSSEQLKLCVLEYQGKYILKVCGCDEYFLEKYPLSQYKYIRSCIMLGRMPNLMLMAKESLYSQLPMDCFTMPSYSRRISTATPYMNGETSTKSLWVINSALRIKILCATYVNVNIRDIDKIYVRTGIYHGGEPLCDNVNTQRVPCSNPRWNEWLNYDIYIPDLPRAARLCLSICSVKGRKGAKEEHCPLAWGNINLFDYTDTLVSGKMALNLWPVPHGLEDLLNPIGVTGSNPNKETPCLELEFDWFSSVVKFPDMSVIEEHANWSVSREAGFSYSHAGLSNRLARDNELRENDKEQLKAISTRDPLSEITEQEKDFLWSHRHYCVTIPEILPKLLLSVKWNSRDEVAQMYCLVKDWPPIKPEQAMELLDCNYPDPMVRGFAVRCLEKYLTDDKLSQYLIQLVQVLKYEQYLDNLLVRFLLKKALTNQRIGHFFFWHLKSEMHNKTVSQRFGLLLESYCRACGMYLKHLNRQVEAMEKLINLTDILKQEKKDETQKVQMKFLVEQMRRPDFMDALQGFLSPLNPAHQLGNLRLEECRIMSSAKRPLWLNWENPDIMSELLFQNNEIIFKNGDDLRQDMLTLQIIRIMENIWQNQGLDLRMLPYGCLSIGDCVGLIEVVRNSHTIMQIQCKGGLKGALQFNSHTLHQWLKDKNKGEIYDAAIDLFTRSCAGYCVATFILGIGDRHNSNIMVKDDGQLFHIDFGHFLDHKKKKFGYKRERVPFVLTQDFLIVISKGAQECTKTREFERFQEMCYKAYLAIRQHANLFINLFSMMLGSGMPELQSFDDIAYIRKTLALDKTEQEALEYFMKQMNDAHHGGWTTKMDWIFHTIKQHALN
T1 sequence (P27986 whole entry partner, the tested form may be a part, canonical isoform): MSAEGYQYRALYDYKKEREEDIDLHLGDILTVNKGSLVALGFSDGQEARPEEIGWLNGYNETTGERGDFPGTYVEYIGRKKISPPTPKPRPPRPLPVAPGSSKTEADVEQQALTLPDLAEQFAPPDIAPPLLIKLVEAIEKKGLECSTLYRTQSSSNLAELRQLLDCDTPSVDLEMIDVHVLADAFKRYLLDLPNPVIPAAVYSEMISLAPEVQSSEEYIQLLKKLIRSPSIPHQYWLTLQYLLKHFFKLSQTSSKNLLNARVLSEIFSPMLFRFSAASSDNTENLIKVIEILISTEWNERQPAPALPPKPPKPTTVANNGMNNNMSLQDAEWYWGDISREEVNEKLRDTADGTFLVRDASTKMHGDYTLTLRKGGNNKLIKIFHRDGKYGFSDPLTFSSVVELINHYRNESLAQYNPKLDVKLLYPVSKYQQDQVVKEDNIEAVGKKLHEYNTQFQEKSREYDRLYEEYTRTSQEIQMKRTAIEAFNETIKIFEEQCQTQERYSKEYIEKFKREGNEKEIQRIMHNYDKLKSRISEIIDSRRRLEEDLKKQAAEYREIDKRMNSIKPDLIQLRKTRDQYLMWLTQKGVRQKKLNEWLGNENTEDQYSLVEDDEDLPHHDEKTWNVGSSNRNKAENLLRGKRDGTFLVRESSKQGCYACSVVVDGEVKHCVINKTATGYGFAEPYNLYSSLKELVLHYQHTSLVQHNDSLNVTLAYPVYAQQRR

Row | SMILES | pIC50 [1] | pIC50 (p110α Type Ia human PI3K)
1 | O=C(Nc1cccc(-c2nc(-c3ccc(CO)o3)cc(N3CCOCC3)n2)c1)C1CCNCC1 [Example 5, 4-(5-hydroxymethylfuran-2-yl)-6-morpholino-2-(3-piperidin-4-ylcarbonylaminophenyl)pyrimidine] | ~6.00 | ~6.30
2 | O=C(Nc1cccc(-c2nc(-c3ccc(CO)s3)cc(N3CCOCC3)n2)c1)C1CCNCC1 [Example 1, 4-(5-hydroxymethylthien-2-yl)-6-morpholino-2-(3-piperidin-4-ylcarbonylaminophenyl)pyrimidine] | ~4.30 | ~5.00
3 | COc1ncc(-c2cc(N3CCOCC3)nc(-c3cccc(NC(C)=O)c3)n2)cn1 [Example 2, 2-(3-acetamidophenyl)-4-(2-methoxypyrimidin-5-yl)-6-morpholinopyrimidine] | ~4.55 | ~4.92
4 | O=C(Nc1cccc(-c2cc(N3CCOCC3)nc(-c3ccc(CO)o3)n2)c1)C1CCCNC1 (stereo not shown) [Example 4, 2-(5-hydroxymethylfuran-2-yl)-6-morpholino-4-(3-piperidin-3-ylcarbonylaminophenyl)pyrimidine] |  | ~6.22
